In patent US11390900B2, “Antimicrobial cartridges and processes for multiplexed antimicrobial susceptibility testing” (priority 2018, dated 2022):
Where two headings read alike, the source gives them in different places.

Tests used:
[1] = tested on: patient sample microbes; experiment: AST MIC results for antimicrobial panel 1 (384-well panel from Master Plate vs 96-well panel); type: cell-based; settings: for MICs obtained from panel made from Master Plate: antimicrobial panel 1, 384 well patient cartridge; for MICs obtained from 96-well Antibiotic Panel: antimicrobial panel 1, standard 96 well AST assay plate
Excerpt: (§1) An assay setup comprises preparation of patient (target) cartridge by dispensing antimicrobials were from the master cartridge or intermediate serial dilution cartridges into one or more 384 reservoir patient cartridge, each antimicrobial in about 7 serial dilutions in triplicate, and covering the dynamic range of each antimicrobial that is known to be effective and therefore should be reported. The dilution range included the expected minimum inhibitory concentration (MIC) for each antimicrobial. But most importantly, dilution ranges, that is, antimicrobial concentrations beyond the range known to be effective are included in the patient cartridge as per the present invention.
(§2) The remaining reservoirs of the 384 well patient cartridge are utilized for setting up test controls: a no-antimicrobial control (negative control) was included for each antimicrobial compound; and a positive control was included for each antimicrobial set, where a microorganism that is not susceptible to the antimicrobial was added to the well. Each control set was also dispensed at least in duplicate per 384 well cartridge. Additional test controls may be included as deemed necessary by one of skill in the art. Equal amount of a patient sample was dispensed to each of the wells in the cartridge, except in the wells designated for no-sample control, if included. The patient cartridge was ready for determination of susceptibility of microbes from the patient sample to the twelve antimicrobials at the range of concentrations applied, simultaneously. Multiple such plates can be set up in parallel for testing samples from multiple patients, each patient sample per plate. An AST assay was performed on the prepared patient cartridges.
(§3) First, three master plates are loaded by the user onto chilled plate holders (set to 4° C.). These consist of one Broad Spectrum, one Gram-Positive and one Gram-Negative antibiotic plate. Next the bulk reagents and pipette tips are loaded on tube rack. Master and bulk reagent pipette tips and sample dilution tray are reloaded every 12 samples. For every set of tests, up to four Patient Samples in tubes and up to four 384-well Target Plates (Patient plate) are loaded.
(§4) Antibiotics are transferred from Broad Spectrum Master Plate to Target Plate(s). Antibiotics are “stamped” according to FIG. 10A-B. The inoculator tips should be placed back in the same position of the Broad Spectrum Tip Box for use on subsequent target plates, but should only be used for same antibiotics to avoid cross contamination.
(§5) Antimicrobials are transferred from Gram-Positive OR Gram-Negative Master Plate to Target Plate(s) and the antibiotics are “stamped” according to FIG. 11A-B. The inoculator should place tips back in the same position of the correct tip box for use on subsequent target plates. Good care is taken such that any cross contamination is prevented.
(§6) Using new tips from the Sample Tip Box, 50 μL of diluted patient sample are transferred into Target Plate according to Table Four, this is done with a “jet dispense” to avoid cross contamination. After the Patient Sample has been transferred to each well on the Target Plate, the tips should be disposed of to avoid cross contamination. The above steps are repeated for each additional Patient Sample and Target Plate.
(§7) Shown in Table 6 and Table 7, MIC results for antimicrobial panels 1 and 2 respectively using a master cartridge format and a 384 well patient cartridge (column 3) agrees reliably with that run by standard 96 well AST assay plate (right hand column).

[2] = tested on: E. faecalis 29212; settings: cited from earlier work; for CLSI-Defined QC Range: MIC range; for CLSI-Defined QC Range, screen result: E. faecalis 29212, no growth @ 100 48 hrs (streptomycin), @ 500 24 hrs (gentamicin)
[3] = tested on: patient sample microbes; settings: antimicrobial panel 2, MIC range; cited from earlier work
[4] = tested on: patient sample microbes; experiment: AST MIC results for antimicrobial panel 2 (384-well panel from Master Plate vs 96-well panel); type: cell-based; settings: for MICs obtained from panel made from Master Plate: antimicrobial panel 2, 384 well patient cartridge; for MICs obtained from 96-well Antibiotic Panel: antimicrobial panel 2, standard 96 well AST assay plate
Excerpt: as §1, §2, §3, §4, §5, §6, §7

[5] = tested on: E. coli 25922; settings: MIC range, E. coli 25922, Gram negative panel; cited from earlier work
[6] = tested on: patient sample microbes; settings: antimicrobial panel 1, MIC range; cited from earlier work
[7] = tested on: K. pneumoniae 700603; settings: MIC range, K. pneumoniae 700603, Gram negative panel; cited from earlier work
[8] = tested on: S. aureus 43300; settings: growth @ 4; cited from earlier work
[9] = tested on: S. aureus 29213; settings: cited from earlier work; for CLSI-Defined QC Range, screen result: S. aureus 29213, no growth @ 0.5/4 (Cli/Ery), @ 4 (cefoxitin), @ 256 (mupirocin)
[10] = tested on: S. aureus BAA-1708; settings: growth @ 256; cited from earlier work
[11] = tested on: E. faecalis 51299; settings: growth @ 100 (streptomycin), @ 500 (gentamicin); cited from earlier work
[12] = E. faecalis 29212, Gram positive panel

Molecule: CC1(C)S[C@@H]2[C@H](NC(=O)[C@H](N)c3ccccc3)C(=O)N2[C@H]1C(=O)O [Ampicillin]
- MICs obtained from panel made from Master Plate [1]: 4 µg/mL
- MICs obtained from 96-well Antibiotic Panel [1]: 8 µg/mL
- CLSI-Defined QC Range [2, 12]: 0.5 to 2 µg/mL
- Quality Control Range [3]: 0.5-2
- MICs obtained from panel made from Master Plate [4]: 1 µg/mL
- MICs obtained from 96-well Antibiotic Panel [4]: 1 µg/mL
- CLSI-Defined QC Range [5]: 2 to 8 µg/mL
- Quality Control Range [6]: 2-8
- CLSI-Defined QC Range [7]: >128 µg/mL

Molecule: CO[C@@]1(NC(=O)Cc2cccs2)C(=O)N2C(C(=O)O)=C(COC(N)=O)CS[C@@H]21 [Cefoxitin]
- CLSI-Defined QC Range, screen result [8]: Positive (Growth @
- CLSI-Defined QC Range [5]: 2 to 8 µg/mL
- CLSI-Defined QC Range, screen result [9]: Negative (No growth

Molecule: CC(C)(O/N=C(\C(=O)N[C@@H]1C(=O)N2C(C(=O)[O-])=C(C[n+]3ccccc3)CS[C@H]12)c1csc(N)n1)C(=O)O [Ceftazidime]
- MICs obtained from panel made from Master Plate [1]: ≤ 1 µg/mL
- MICs obtained from 96-well Antibiotic Panel [1]: 0.25 µg/mL
- Quality Control Range [3]: 4-16
- MICs obtained from panel made from Master Plate [4]: 4 µg/mL
- MICs obtained from 96-well Antibiotic Panel [4]: 8 µg/mL
- Quality Control Range [6]: 0.06-0.5
- CLSI-Defined QC Range ([9]; MIC range, S. aureus 29213, Gram negative panel): 4 to 16 µg/mL
- CLSI-Defined QC Range [7]: 16 to 64 µg/mL

Molecule: C/C(=C\C(=O)OCCCCCCCCC(=O)O)C[C@@H]1OC[C@H](C[C@@H]2O[C@H]2[C@@H](C)[C@H](C)O)[C@@H](O)[C@H]1O [Mupirocin High Level Screen, Mupirocin]
- CLSI-Defined QC Range, screen result [10]: Positive (Growth @
- CLSI-Defined QC Range, screen result [9]: Negative (No growth

Molecule: [H]/N=C(/N)N[C@H]1[C@H](O)[C@@H](O)[C@H](O[C@@H]2O[C@@H](C)[C@](O)(C=O)[C@H]2O[C@@H]2O[C@@H](CO)[C@H](O)[C@@H](O)[C@@H]2NC)[C@@H](N/C(N)=N\[H])[C@@H]1O [Streptomycin High Level Screen, Streptomycin]
- CLSI-Defined QC Range, screen result [2]: Negative (No growth
- CLSI-Defined QC Range, screen result [11]: Positive (Growth @

Molecule: Gentamicin
- CLSI-Defined QC Range, screen result [2]: Negative (No growth
- CLSI-Defined QC Range ([2]; E. faecalis 29212, Gram negative panel): 4 to 16 µg/mL
- CLSI-Defined QC Range [2, 12]: 4 to 16 µg/mL
- CLSI-Defined QC Range, screen result [11]: Positive (Growth @
